In patent publication US20130085157A1, “ARYLSUBSTITUTED THIAZOLOTRIAZOLES AND THIAZOLOIMIDAZOLES” (priority 2011, published 2013):

biological target: T1, human TGR5 bile acid receptor (Homo sapiens, UniProt Q8TDU6); assay: TGR5 receptor activation, HTRF cAMP assay in 293/humanTGR5 cells; assay type: cell-based; settings: activation of 293/humanTGR5 (HEK 293) cells measured by cAMP levels, 30 minutes at 37° C., relative to vehicle and 50 μM of Compound 7
T1 construct: The full length TGR5 gene is inserted into pCMV6 vector DNA (Origene); expressed in transfected cells
T1 sequence (Q8TDU6 1-330): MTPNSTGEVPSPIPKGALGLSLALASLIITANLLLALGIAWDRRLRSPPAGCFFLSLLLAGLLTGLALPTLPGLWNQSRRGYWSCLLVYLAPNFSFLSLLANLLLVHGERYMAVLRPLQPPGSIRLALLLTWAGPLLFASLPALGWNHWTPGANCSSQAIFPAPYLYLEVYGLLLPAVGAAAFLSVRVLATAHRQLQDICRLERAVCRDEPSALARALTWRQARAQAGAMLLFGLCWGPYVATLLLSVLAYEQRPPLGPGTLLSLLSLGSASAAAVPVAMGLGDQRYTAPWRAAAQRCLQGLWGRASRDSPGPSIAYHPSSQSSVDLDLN
Description: Transformed E. coli stocks containing cDNA for the full length human TGR5 bile acid receptor (IMAGE clone #5221127) are obtained from Open Biosystems. Cultures are grown in LB broth, and cDNA is purified using Qiagen mini-prep columns. The full length TGR5 gene is inserted into pCMV6 vector DNA (Origene) by ligation followed by transformation in competent E. coli. Ampicillin-resistant clones are isolated and vector DNA containing the TGR5 gene is verified by DNA sequence analysis (Sequetech). The resulting plasmid is transfected into HEK 293 cells using FuGene 6 transfection reagent and the transfected cells are grown in the presence of 1 mg/mL G418 selection antibiotic. A number of individual G418 resistant colonies are isolated by using 150 μL cloning cylinders. The resulting 293/humanTGR5 expressing cell lines are then screened for responsiveness to the natural ligand lithocholic acid. A single clone is chosen for expansion and use for screening, this clone reproducibly responds to known receptor agonists for over 30 passages. The 293/humanTGR5 cells are maintained in DMEM/F12 media supplemented with 10% fetal bovine serum (Hyclone) and 15 mM HEPES buffer (Invitrogen). Cells are passaged twice weekly and maintained at densities to assure logarithmic growth. For use in cAMP assays, cells are trypsinzied, centrifuged, and resuspended in DMEM/F12 media supplemented with 0.5% FBA and 15 mM HEPES buffer. These cells are adjusted to a density which allows distribution of 25,000 cells in 20 μL of volume to each well of a half-area 96-well plate (Greiner Bio-One). 20 μL of test compounds diluted to a 2× concentration in DMEM/F12 media with 0.5% FBS are then added to the 96-well plates, and the plates are then incubated for 30 minutes at 37° C. in a 5% CO2 atmosphere. Levels of resulting cAMP for each treatment condition are then determined by use of an HTRF cAMP assay (CisBio) following the manufactures directions. The resulting data is analyzed using IDBX XLfit software and IC50 determinations are made for each test compound by comparing cAMP levels to vehicle controls (unstimulated) and TGR5 agonist-activated cells (50 μM of Compound 7, a reported TGR5 receptor agonist, J. Med. Chem., 2009, 52 (24), pp 7962-7965). Specificity for human TGR5 agonist activity is confirmed for compounds of interest by testing them against cell lines over expressing the mouse TGR5 receptor, human GPR119 receptor, and parent cell lines followed by measurement of resulting cAMP levels. Assay responsiveness is controlled for by measuring cAMP levels induced by 50 μM Forskolin in cells, a known adenylyl […] activator.

Row | EC50 [µM] | SMILES
1 | 0.5 to 5 | COc1ccc(Cc2sc3nnc(SCc4c(F)cccc4Cl)n3c2-c2ccc(F)cc2)cc1OC [Example 83]
2 | 0.5 to 5 | Cc1ccc(N(C)C(=O)c2sc3nnc(C)n3c2-c2ccccc2)cc1Cl [Example 2, N-(3-chloro-4-methyl-phenyl)-N,3-dimethyl-5-phenyl-thiazolo[2,3-c][1,2,4]triazole-6-carboxamide]
3 | < 0.5 | COc1ccc(Cc2sc3cnc(SCc4c(F)cccc4Cl)n3c2-c2cccc(Cl)c2)cc1OC [Example 18, 5-[(2-chloro-6-fluoro-phenyl)methylsulfanyl]-3-(3-chlorophenyl)-2-[(3,4-dimethoxyphenyl)methyl]imidazo[5,1-b]thiazole]
4 | 0.5 to 5 | c1cc(-c2csc3nnc(SCc4ccc5c(c4)OCO5)n23)cc(C2CC2)c1 [Example 80]
5 | < 0.5 | Fc1cccc(Cl)c1CSc1ncc2scc(-c3cccc(Cl)c3)n12 [Example 15, 5-[(2-chloro-6-fluoro-phenyl)methylsulfanyl]-3-(3-chlorophenyl)imidazo[5,1-b]thiazole]
6 | 5 to 50 | OC(c1ccc(F)cc1)c1sc2nnc(SCc3ccc4c(c3)OCO4)n2c1-c1ccccc1 (centres unmarked) [Example 7, [3-(1,3-Benzodioxol-5-ylmethylsulfanyl)-5-phenyl-thiazolo[2,3-c][1,2,4]triazol-6-yl]-(4-fluorophenyl)methanol]
7 | 0.5 to 5 | COc1cc(-c2csc3nnc(SCc4ccc5c(c4)OCO5)n23)ccc1F [Example 50]
8 | 5 to 50 | Fc1cccc(Cl)c1CSc1nnc2scc(-c3ccccc3)n12 [Example 19]
9 | 0.5 to 5 | Clc1cccc(-c2csc3nnc(SCc4ccc5c(c4)OCO5)n23)c1Cl [Example 76]
10 | 0.5 to 5 | Cc1ccc(Nc2nnc3scc(-c4cc(Cl)ccc4Cl)n23)cc1Cl [Example 14, N-(3-chloro-4-methylphenyl)-5-(2,5-dichlorophenyl)thiazolo[2,3-c][1,2,4]triazol-3-amine]
11 | 5 to 50 | c1ccc(-c2csc3nnc(SCc4ccc5cnccc5c4)n23)cc1 [Example 43]
12 | 0.5 to 5 | COc1ccc(CSc2nnc3sc(-c4c(F)cccc4Cl)c(-c4ccc(F)cc4)n23)cc1F [Example 94]
13 | 0.5 to 5 | COc1cc(Br)c(Cc2sc3nnc(SCc4c(F)cccc4Cl)n3c2-c2ccc(F)c(Cl)c2)cc1OC [Example 119]
14 | 0.5 to 5 | COc1ccc(Cc2sc3nnc(SCc4c(F)cccc4Cl)n3c2-c2cccc(Cl)c2)cc1OC [Example 17, 3-[(2-Chloro-6-fluoro-phenyl)methylsulfanyl]-5-(3-chlorophenyl)-6-[(3,4-dimethoxyphenyl)methyl]thiazolo[2,3-c][1,2,4]triazole]
15 | 5 to 50 | c1ccc2cc(-c3csc4nnc(SCc5ccc6c(c5)OCO6)n34)ccc2c1 [Example 131]
16 | 5 to 50 | CN(C(=O)C(C)(C)C)c1cc(F)ccc1-c1csc2nnc(SCc3ccc4c(c3)OCO4)n12 [Example 59]
17 | 0.5 to 5 | COc1cc(Br)c(Cc2sc3nnc(SCc4c(F)cccc4Cl)n3c2-c2ccc(F)c(Cl)c2)c(Br)c1OC [Example 112]
18 | 0.5 to 5 | COc1ccc(-c2csc3nnc(SCc4ccc5c(c4)OCO5)n23)c(Cl)c1 [Example 65]
19 | 5 to 50 | C=C(c1ccc(OC)c(OC)c1)c1sc2nnc(SCc3c(F)cccc3Cl)n2c1-c1ccccc1 [Example 12, 3-[(2-chloro-6-fluoro-phenyl)methylsulfanyl]-6-[1-(3,4-dimethoxyphenyl)vinyl]-5-phenyl-thiazolo[2,3-c][1,2,4]triazole]
20 | 5 to 50 | CC(c1ccccc1)c1sc2nnc(SCc3c(F)cccc3Cl)n2c1-c1ccc(F)cc1 (centres unmarked) [Example 98]
21 | 5 to 50 | c1ccc(-c2csc3nnc(Oc4ccc5c(c4)OCO5)n23)cc1 [Example 46]
22 | 5 to 50 | Fc1ccc(-c2c(-c3c(F)cccc3Cl)sc3nnc(Cc4ccc5c(c4)OCO5)n23)cc1 [Example 97]

Row | EC50 [µM] | SMILES
23 | < 0.5 | Fc1ccc(-c2csc3nnc(SCc4ccc5c(c4)OCO5)n23)cc1Br [Example 53]
24 | 5 to 50 | Fc1ccc(-c2csc3nnc(SCc4ccc5c(c4)OCO5)n23)cc1 [Example 24]
25 | 5 to 50 | c1ccc(CCSc2nnc3scc(-c4ccccc4)n23)cc1 [Example 30]
26 | 0.5 to 5 | COC(=O)c1cccc(CSc2nnc3scc(-c4cccc(Br)c4)n23)c1 [Example 66]
27 | 0.5 to 5 | Fc1cccc(Cl)c1CSc1cnc2scc(-c3cccc(Cl)c3)n12 [Example 138, 5-[(2-chloro-6-fluoro-phenyl)methylsulfanyl]-3-(3-chlorophenyl)imidazo[2,1-b]thiazole]
28 | 0.5 to 5 | Fc1cccc(Cl)c1CSc1nnc2scc(-c3cccc(Cl)c3)n12 [Example 117]
29 | < 0.5 | Cc1cc(-c2csc3nnc(SCc4ccc5c(c4)OCO5)n23)ccc1F [Example 115]
30 | 0.5 to 5 | COc1ccc(Cc2sc3nnc(SCc4c(F)cccc4Cl)n3c2-c2ccc(F)c(Cl)c2)cc1Cl [Example 100]
31 | 0.5 to 5 | COc1ccc(C(C)(C)c2sc3nnc(SCc4c(F)cccc4Cl)n3c2-c2ccccc2)cc1OC [Example 11, 3-[(2-chloro-6-fluoro-phenyl)methylsulfanyl]-6-[1-(3,4-dimethoxyphenyl)-1-methyl-ethyl]-5-phenyl-thiazolo[2,3-c][1,2,4]triazole]
32 | 0.5 to 5 | Cc1ccc(N(C)c2nnc3scc(-c4cc(Cl)ccc4Cl)n23)cc1Cl [Example 120]
33 | 0.5 to 5 | Cc1ccc(-c2csc3nnc(SCc4c(F)cccc4Cl)n23)cc1Cl [Example 86]
34 | 5 to 50 | c1ccc(-c2csc3nnc(SCc4ccc5c(c4)OCO5)n23)cc1 [Example 6, 3-(1,3-Benzodioxol-5-ylmethylsulfanyl)-5-phenyl-thiazolo[2,3-c][1,2,4]triazole]
35 | < 0.5 | Brc1cccc(-c2csc3nnc(SCc4ccc5c(c4)OCO5)n23)c1 [Example 69]
36 | 5 to 50 | c1ccc(-c2csc3nnc(CCc4ccc5c(c4)OCO5)n23)cc1 [Example 4, 3-[2-(1,3-benzodioxol-5-yl)ethyl]-5-phenyl-thiazolo[2,3-c][1,2,4]triazole]
37 | 5 to 50 | Cc1nnc2sc(SCc3c(F)cccc3Cl)c(-c3ccccc3)n12 [Example 8, 6-[(2-Chloro-6-fluoro-phenyl)methylsulfanyl]-3-methyl-5-phenyl-thiazolo[2,3-c][1,2,4]triazole]
38 | 0.5 to 5 | COc1cc(Cl)c(Cc2sc3nnc(SCc4ccc5c(c4)OCO5)n3c2-c2cccc(Cl)c2)cc1OC [Example 127]
39 | 0.5 to 5 | COc1ccc(Cc2sc3nnc(SCc4ccc(F)cc4F)n3c2-c2ccc(F)c(Cl)c2)cc1Cl [Example 106]
40 | 5 to 50 | CCc1sc2nnc(SCc3ccc4c(c3)OCO4)n2c1-c1ccccc1 [Example 48]
41 | 0.5 to 5 | Cc1ccc(N(C)C(=O)c2sc3nncn3c2-c2ccccc2)cc1Cl [Example 1, N-(3-chloro-4-methyl-phenyl)-N-methyl-5-phenyl-thiazolo[2,3-c][1,2,4]triazole-6-carboxamide]
42 | 0.5 to 5 | Clc1ccc(CSc2nnc3scc(-c4ccccc4)n23)cc1 [Example 26]
43 | 0.5 to 5 | Cc1ccc(N(C)C(=O)c2sc3nnc(SCc4ccc5c(c4)OCO5)n3c2-c2ccccc2)cc1Cl [Example 3, 3-(1,3-Benzodioxol-5-ylmethylsulfanyl)-N-(3-chloro-4-methyl-phenyl)-N-methyl-5-phenyl-thiazolo[2,3-c][1,2,4]triazole-6-carboxamide]
44 | < 0.5 | Cc1ccc(-c2csc3nnc(SCc4c(F)cccc4Cl)n23)cc1 [Example 109]
